Our source for the EC50 and melting point values is patent US20230150978A1, “QUINAZOLINONE DERIVATIVES AND USES THEREOF FOR TREATING A CANCER” (ENYO PHARMA, priority 2020, published 2023).

For one series, the system named is Calreticulin. Nature of the series: Calreticulin release (ER to plasma membrane translocation) screen, Nano-Glo HiBiT extracellular detection. Type of series: cell-based. The note with it: Homo sapiens, MDA-MB-231, MDA-MB-231 cells stably expressing Calreticulin-HiBiT; extracellular luminescence; read-out: CalR EC50.
The next series relates to HMGB1. In words: HMGB1 release screen, Nano-Glo HiBiT extracellular detection. Type of series: cell-based. The settings on record: Homo sapiens, MDA-MB-231, MDA-MB-231 cells stably expressing HMGB1-HiBiT; extracellular luminescence. (HiBiT is a short tag that completes a luciferase, so light tracks the accessible tagged protein.)

`COc1ccc2nc(CN3CC(CO)c4ccccc43)[nH]c(=O)c2c1` (stereo not drawn) [Ex. #9, 2-[[3-(hydroxymethyl)indolin-1-yl]methyl]-6-methoxy-3H-quinazolin-4-one] returned a melting point of 190 to 209 °C. Further, the EC50 with Calreticulin came to 12.8 µM. For the same compound, in the series on HMGB1, the EC50 turned out to be 11.7 µM.
On to `COc1ccc2nc(CN3CC(C)c4ccccc43)[nH]c(=O)c2c1` (stereo not drawn) [Ex. #3, 6-methoxy-2-[(3-methylindolin-1-yl)methyl]-3H-quinazolin-4-one], for which the melting point was in the range of 192 to 213 °C. The concentration for a half-maximal effect (EC50) with Calreticulin was determined as 0.191 µM. The compound also showed an EC50 in the series with HMGB1 of 0.263 µM.
The matching figures for `COc1cccc2c1CN(Cc1nc3ccc(Cl)cc3c(=O)[nH]1)CC2` [Ex. #130, 6-chloro-2-[(8-methoxy-3,4-dihydro-1H-isoquinolin-2-yl)methyl]-3H-quinazolin-4-one]: 195 to 203 °C, 9.06 µM and 15.1 µM.
The matching figures for `COc1ccc2nc(CN3CCc4ccccc4C3)[nH]c(=O)c2c1` [Ex. #122, 2-(3,4-dihydro-1H-isoquinolin-2-ylmethyl)-6-methoxy-3H-quinazolin-4-one]: 174 to 179 °C, 1.66 µM and 12.7 µM.
On to `CC1(C)CN(Cc2nc3ccc(Cl)cc3c(=O)[nH]2)c2ccccc21` [Ex. #40, 6-chloro-2-[(3,3-dimethylindolin-1-yl)methyl]-3H-quinazolin-4-one], for which the melting point was 163 to 176 °C. Moreover, the EC50 in the series on Calreticulin was 0.941 µM. The compound further returned an EC50 with HMGB1 of 1.26 µM.
`COc1ccc2nc(CN3CC(C(C)C)c4ccccc43)[nH]c(=O)c2c1` (stereo not drawn) [Ex. #6, 2-[(3-isopropylindolin-1-yl)methyl]-6-methoxy-3H-quinazolin-4-one] came in with a melting point of 192 to 208 °C. Also, the EC50 with Calreticulin is 0.254 µM. In the series with HMGB1, the EC50 amounted to 0.217 µM.
Turning to `COc1cc2c(=O)[nH]c(CN3CC(C)(C)c4ccccc43)nc2cn1` [Ex. #79, 2-[(3,3-dimethylindolin-1-yl)methyl]-6-methoxy-3H-pyrido[3,4-d]pyrimidin-4-one], the melting point lay within 145 to 167 °C. Also, the EC50 with Calreticulin was 0.796 µM. The compound further yielded an EC50 in the series with HMGB1 of 0.801 µM.
The matching figures for `CN(C)c1cc2c(=O)[nH]c(CN3CCc4ccccc43)nc2cc1F` [Ex. #80, 6-(dimethylamino)-7-fluoro-2-(indolin-1-ylmethyl)-3H-quinazolin-4-one]: 200 to 223 °C, 0.22 µM and 0.225 µM.
As to `COCCCOc1ccc2nc(CN3CC(C)(C)c4ccccc43)[nH]c(=O)c2c1` [Ex. #96, 2-[(3,3-dimethylindolin-1-yl)methyl]-6-(3-methoxypropoxy)-3H-quinazolin-4-one], the melting point was 155 to 165 °C. Besides, the EC50 in the series on Calreticulin turned out to be 9.86 µM. The EC50 with HMGB1 stood at 10.6 µM.
In turn, `COc1cc2c(=O)[nH]c(CN3CCc4ccccc43)nc2cn1` [Ex. #78, 2-(indolin-1-ylmethyl)-6-methoxy-3H-pyrido[3,4-d]pyrimidin-4-one] yielded a melting point of 215 to 230 °C. For the same compound, the EC50 in the series on Calreticulin worked out at 2.45 µM. The compound further displayed an EC50 with HMGB1 of 3.25 µM.
The matching figures for `CC(C)(C)OC(=O)NCCCCOc1ccc2nc(CN3CCc4ccccc43)[nH]c(=O)c2c1` [Ex. #90, tert-butyl N-[4-[[2-(indolin-1-ylmethyl)-4-oxo-3H-quinazolin-6-yl]oxy]butyl]carbamate]: 167 to 181 °C, 5.49 µM and 8.76 µM.
`CC1(C)CN(Cc2nc3ccc(C#N)cc3c(=O)[nH]2)c2ccccc21` [Ex. #95, 2-[(3,3-dimethylindolin-1-yl)methyl]-4-oxo-3H-quinazoline-6-carbonitrile] came in with a melting point of 187 to 197 °C. Moreover, the EC50 with Calreticulin is 9.96 µM. Moreover, the midpoint of the response in the series on HMGB1, the EC50, lay at 11.5 µM.
In turn, `COc1ccc2nc(CN3CCc4c(N)cccc4C3)[nH]c(=O)c2c1` [Ex. #133, 2-[(5-amino-3,4-dihydro-1H-isoquinolin-2-yl)methyl]-6-methoxy-3H-quinazolin-4-one] showed a melting point of 211 to 233 °C. Further, the EC50 in the series on Calreticulin turned out to be 8.16 µM. Also, the EC50 in the series with HMGB1 turned out to be 14 µM.
In the case of `COc1ccc2nc(CN3CCc4c(C#N)cccc4C3)[nH]c(=O)c2c1` [Ex. #16, 2-[(6-methoxy-4-oxo-3H-quinazolin-2-yl)methyl]-3,4-dihydro-1H-isoquinoline-5-carbonitrile], the melting point fell in the range of 197 to 218 °C. The EC50 in the series with Calreticulin turned out to be 0.49 µM. In the series with HMGB1, this compound registered an EC50 of 2.66 µM.
`O=c1[nH]c(CN2CCc3ccccc32)nc2ccc(F)cc12` [Ex. #88, 6-fluoro-2-(indolin-1-ylmethyl)-3H-quinazolin-4-one] gave a melting point of 184 to 196 °C. In the series on Calreticulin, the EC50 is 7.56 µM. The compound also registered an EC50 in the series with HMGB1 of 4.66 µM.
The compound `CC(C)c1ccc2nc(CN3CCc4ccccc43)[nH]c(=O)c2c1` [Ex. #81, 2-(indolin-1-ylmethyl)-6-isopropyl-3H-quinazolin-4-one] returned a melting point of 168 to 185 °C. For the same compound, the EC50 in the series with Calreticulin stood at 0.08 µM. In addition, the EC50 in the series with HMGB1 turned out to be 0.41 µM.
Take `COc1ccc2nc(CN3CCc4ccc(F)cc43)[nH]c(=O)c2c1` [Ex. #7, 2-[(6-fluoroindolin-1-yl)methyl]-6-methoxy-3H-quinazolin-4-one]: the melting point was in the range of 229 to 235 °C. Also, in the series on Calreticulin, the EC50 was 0.323 µM. The EC50 with HMGB1 is 0.425 µM.
For the compound `COc1cccc2c1CCN(Cc1nc3ccc(Cl)cc3c(=O)[nH]1)C2` [Ex. #58, 6-chloro-2-[(5-methoxy-3,4-dihydro-1H-isoquinolin-2-yl)methyl]-3H-quinazolin-4-one], the melting point was in the range of 205 to 212 °C. The EC50 in the series on Calreticulin was determined as 0.524 µM. In the series on HMGB1, this compound had an EC50 of 4.81 µM.

A word on the EC50: it is the concentration at which the effect is half-maximal. Broadly, the melting point is the temperature of the solid-liquid transition.
